The supplement of paper PMC10307832

What was measured:
Test in all cases: relative viability (nuclei count vs DMSO), 5 days (fraction); higher = more cells survive
NCI-H1944 = system: NCI-H1944
Procedure, shortened: (§1)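 Relative viability was taken as the ratio of nuclei in treated wells to nuclei in vehicle wells. Lung cancer cell lines in 1536-well plates received compounds by pin tool one day after seeding, either one drug alone or a fixed anchor-drug dose plus five library-drug doses (not always all listed) in √10 steps. Nuclei were counted on 4× images after 5 days of treatment, and values are medians of duplicate plates.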

EMC-BAC-2 = system: EMC-BAC-2
Procedure, shortened: as §1

LK-2 = system: LK-2
Procedure, shortened: as §1

LU99A = system: LU99A
Procedure, shortened: as §1

LXF-289 = system: LXF-289
Procedure, shortened: as §1

HARA = system: HARA
Procedure, shortened: as §1

SW 1573 = system: SW 1573
Procedure, shortened: as §1

PC-3 [JPC-3] = system: PC-3 [JPC-3]
Procedure, shortened: as §1

SK-MES-1 = system: SK-MES-1
Procedure, shortened: as §1

A-427 = system: A-427
Procedure, shortened: as §1

NCI-H3122 = system: NCI-H3122
Procedure, shortened: as §1

NCI-H2228 = system: NCI-H2228
Procedure, shortened: as §1

COc1cc(N2CCC(C(N)=O)CC2)ccc1Nc1nc(N)c(Cl)c(Nc2ccccc2S(=O)(=O)C(C)C)n1 [HG-5-88-01] + CS(=O)(=O)CCNCc1ccc(-c2ccc3ncnc(Nc4ccc(OCc5cccc(F)c5)c(Cl)c4)c3c2)o1 [Lapatinib] (partner 2 µM)
relative viability (NCI-H1944; first compound 0.04 µM): 0.656 | relative viability (NCI-H1944; first compound 0.1265 µM): 0.84 | relative viability (NCI-H1944; first compound 0.4 µM): 0.78 | relative viability (NCI-H1944; first compound 1.265 µM): 0.861 | relative viability (NCI-H1944; first compound 4 µM): 0.648 | relative viability (EMC-BAC-2; first compound 0.04 µM): 0.928 | relative viability (EMC-BAC-2; first compound 0.1265 µM): 0.93 | relative viability (EMC-BAC-2; first compound 0.4 µM): 0.802 | relative viability (EMC-BAC-2; first compound 1.265 µM): 0.906 | relative viability (EMC-BAC-2; first compound 4 µM): 0.684 | relative viability (LK-2; first compound 0.04 µM): 0.94 | relative viability (LK-2; first compound 0.1265 µM): 0.841 | relative viability (LK-2; first compound 0.4 µM): 0.792 | relative viability (LK-2; first compound 1.265 µM): 0.42 | relative viability (LK-2; first compound 4 µM): 0.885 | relative viability (LU99A; first compound 0.04 µM): 1.03 | relative viability (LU99A; first compound 0.1265 µM): 1.02 | relative viability (LU99A; first compound 0.4 µM): 1 | relative viability (LU99A; first compound 1.265 µM): 0.988 | relative viability (LU99A; first compound 4 µM): 0.721 | relative viability (LXF-289; first compound 0.04 µM): 0.913 | relative viability (LXF-289; first compound 0.1265 µM): 0.904 | relative viability (LXF-289; first compound 0.4 µM): 0.883 | relative viability (LXF-289; first compound 1.265 µM): 0.928 | relative viability (LXF-289; first compound 4 µM): 0.867 | relative viability (HARA; first compound 0.04 µM): 0.754 | relative viability (HARA; first compound 0.1265 µM): 0.528 | relative viability (HARA; first compound 0.4 µM): 0.671 | relative viability (HARA; first compound 1.265 µM): 0.71 | relative viability (HARA; first compound 4 µM): 0.31 | relative viability (SW 1573; first compound 0.04 µM): 1.12 | relative viability (SW 1573; first compound 0.1265 µM): 0.86 | relative viability (SW 1573; first compound 0.4 µM): 0.989 | relative viability (SW 1573; first compound 1.265 µM): 1.06 | relative viability (SW 1573; first compound 4 µM): 1.04 | relative viability (PC-3 [JPC-3]; first compound 0.04 µM): 0.408 | relative viability (PC-3 [JPC-3]; first compound 0.1265 µM): 0.466 | relative viability (PC-3 [JPC-3]; first compound 0.4 µM): 0.39 | relative viability (PC-3 [JPC-3]; first compound 1.265 µM): 0.434 | relative viability (PC-3 [JPC-3]; first compound 4 µM): 0.25 | relative viability (SK-MES-1; first compound 0.04 µM): 0.442 | relative viability (SK-MES-1; first compound 0.1265 µM): 0.453 | relative viability (SK-MES-1; first compound 0.4 µM): 0.407 | relative viability (SK-MES-1; first compound 1.265 µM): 0.477 | relative viability (SK-MES-1; first compound 4 µM): 0.469 | relative viability (A-427; first compound 0.04 µM): 0.976 | relative viability (A-427; first compound 0.1265 µM): 0.984 | relative viability (A-427; first compound 0.4 µM): 0.978 | relative viability (A-427; first compound 1.265 µM): 1.04 | relative viability (A-427; first compound 4 µM): 0.589 | relative viability (NCI-H3122; first compound 0.04 µM): 0.763 | relative viability (NCI-H3122; first compound 0.1265 µM): 0.357 | relative viability (NCI-H3122; first compound 0.4 µM): 0.281 | relative viability (NCI-H3122; first compound 1.265 µM): 0.221 | relative viability (NCI-H3122; first compound 4 µM): 0.2 | relative viability (NCI-H2228; first compound 0.04 µM): 0.322 | relative viability (NCI-H2228; first compound 0.1265 µM): 0.264
